Experimental data taken from patent US6949522B2, “β-2′- or 3′-halonucleosides” (Pharmasset, Inc., priority 2001, dated 2005).

These compounds were tested on HepG2 (assay: Toxicity assay (MTS/MTT dye), HepG2 cells). Settings: HepG2, three day-incubation (Table 1).
Protocol: After a three day-incubation for HepG2, or 5 days for human PBM cells, cell viability and mitochondrial activity were measured in a colorimetric assay using the MTS- or MTT dye method (Promega, Madison, Wis.).

Row | Structure (SMILES) | Cytotoxicity HepG2 IC30 [µM]
1 | Nc1ccn([C@H]2S[C@@H](CO)C=C2F)c(=O)n1 [Compound L-17, (+)-1-[(1S,4R)-2,3-dideoxy-2,3-didehydro-2-fluoro-4-thio-β-L-ribofuranosyl]-cytosine] | >100
2 | Nc1nc(=O)n([C@H]2S[C@@H](CO)C=C2F)cc1F [Compound L-18, (+)-1-[(1S,4R)-2,3-dideoxy-2,3-didehydro-2-fluoro-4-thio-β-L-ribofuranosyl]-5-fluoro-cytosine] | >100

Same assay, conditions: read-out: Cytotoxicity HepG2 IC50; HepG2, three day-incubation (Table 3)

Row | Structure (SMILES) | IC50 [µM]
3 | Nc1ccn([C@@H]2C=C(F)[C@H](CO)O2)c(=O)n1 [Compound 23, 1-(2,3-Didcoxy-3-fluoro-β-L-glycero-pent-2-eno-furanosyl)cytosine] | > 100
4 | Nc1ccn([C@H]2S[C@@H](CO)C=C2F)c(=O)n1 [Compound L-17, (+)-1-[(1S,4R)-2,3-dideoxy-2,3-didehydro-2-fluoro-4-thio-β-L-ribofuranosyl]-cytosine] | > 100
5 | Nc1nc(=O)n([C@H]2S[C@@H](CO)C=C2F)cc1F [Compound L-18, (+)-1-[(1S,4R)-2,3-dideoxy-2,3-didehydro-2-fluoro-4-thio-β-L-ribofuranosyl]-5-fluoro-cytosine] | > 100

These compounds were tested on HIV-1 LAI (wild type) (assay: HIV-1 RT-assay on supernatant of acutely infected human PBM cells, strain LAI). Settings: 5 days, RT activity reduced by 90%.
Format: cell-based
Protocol: (§1) Human PBM cells (1×10^6 cells/T25 flask) were PHA stimulated for 2 or 3 days, and infected with either a wild type (LAI and xxBRU) or a 3TC-resistant (xxBRU 184V) HIV-1 strain at 100 TCID50, as previously described (27). The culture was kept for 5 days in presence of test compounds at serial 1-log dilutions. Subsequently, human PBM cells were removed from the culture supernatant by centrifugation (10 minutes, 400×g, 4° C.). This clarified supernatant was tested either in the RT-assay, or in the Q-RT-PCR assay.
(§2) Virus particles present in a 1 mL aliquot of culture supernatant were concentrated by high-speed centrifugation (2 hours, 20,000×g, 4° C.). The supernatant was then removed and the virus pellet was dispensed into a 100 μL virus solubilization buffer (VSB: 0.5% Triton X-100; 0.8 M NaCl, 0.5 mM phenylmethylsulfonyl, 20% glycerol, 50 mM Tris.HCl pH 7.8). A 10 μL aliquot of RT-VSB was mixed with 75 μL RT cocktail (60 mM Tris.HCl pH 7.8, 12 mM MgCl2, 6 mM DTT, 6 μg/mL poly (rA)n-oligo (dT)10-12, 1.2 mM dATP, and 80 μCi/mL 3H-TTP) and incubated for 2 hours at 37° C. Subsequently 100 μL of 10% TCA was added, and the total amount of incorporated 3H-TTP was determined.
(§3) HIV-1 present in culture supernatant fluids was quantified by two different methodologies: i) the Q-RT-PCR with read-out in log copies/mL; and ii) the endogenous viral RT assay on cell supernatant with read-out in log counts per minute/mL (CPM/mL). Upon addition of antiviral compounds to the culture media, a dose-related decrease in virus production was observed. Although the two methodologies measured different parameters (viral RNA versus active RT enzyme), results were not markedly different from each other. The HIV-1 Q-RT-PCR results were compared with a previously established cell-based antiviral drug evaluation assay (endogenous HIV-1 RT polymerization activity in cell supematant)(27).

Row | Structure (SMILES) | EC90 [µM]
6 | Nc1ccn([C@@H]2C=C(F)[C@H](CO)O2)c(=O)n1 [Compound 23, 1-(2,3-Didcoxy-3-fluoro-β-L-glycero-pent-2-eno-furanosyl)cytosine] | 0.67
7 | Nc1ccn([C@H]2S[C@@H](CO)C=C2F)c(=O)n1 [Compound L-17, (+)-1-[(1S,4R)-2,3-dideoxy-2,3-didehydro-2-fluoro-4-thio-β-L-ribofuranosyl]-cytosine] | 3.3
8 | Nc1nc(=O)n([C@H]2S[C@@H](CO)C=C2F)cc1F [Compound L-18, (+)-1-[(1S,4R)-2,3-dideoxy-2,3-didehydro-2-fluoro-4-thio-β-L-ribofuranosyl]-5-fluoro-cytosine] | 2.6

Same assay, conditions: Human immunodeficiency virus 1, PBMC, 120 h, 5 days, RT activity reduced by 90%

Row | Structure (SMILES) | EC90 [µM]
9 | Cc1cn([C@H]2C[C@H](N=[N+]=[N-])[C@@H](CO)O2)c(=O)[nH]c1=O [AZT, 3′-azido-3′-deoxythymidine, reference compound] | 0.02

Each compound was assayed on 3TC-resistant (xxBRU 184V) HIV-1 (assay: HIV-1 RT-assay on supernatant of acutely infected human PBM cells, strain xxBRU 184V). Settings: Human immunodeficiency virus 1, PBMC, 120 h, read-out: RT-Assay 184V EC90.
Format: cell-based
Protocol: as §1, §2, §3

Row | Structure (SMILES) | EC90 [µM]
10 | Cc1cn([C@H]2C[C@H](N=[N+]=[N-])[C@@H](CO)O2)c(=O)[nH]c1=O [AZT, 3′-azido-3′-deoxythymidine, reference compound] | 0.002

Same assay, conditions: RT-assay

Row | Structure (SMILES) | RT-Assay FI, fold increase (EC90 HIV-1184V/EC90 HIV-1xxBRU)
11 | Nc1ccn([C@@H]2C=C(F)[C@H](CO)O2)c(=O)n1 [Compound 23, 1-(2,3-Didcoxy-3-fluoro-β-L-glycero-pent-2-eno-furanosyl)cytosine] | 586
12 | Nc1ccn([C@H]2S[C@@H](CO)C=C2F)c(=O)n1 [Compound L-17, (+)-1-[(1S,4R)-2,3-dideoxy-2,3-didehydro-2-fluoro-4-thio-β-L-ribofuranosyl]-cytosine] | 1,121
13 | Nc1nc(=O)n([C@H]2S[C@@H](CO)C=C2F)cc1F [Compound L-18, (+)-1-[(1S,4R)-2,3-dideoxy-2,3-didehydro-2-fluoro-4-thio-β-L-ribofuranosyl]-5-fluoro-cytosine] | >100

Same assay, conditions: human PBM cells, 5 days, RT activity reduced by 90%; read-out: RT-Assay 184V EC90

Row | Structure (SMILES) | EC90 [µM]
14 | Nc1ccn([C@@H]2C=C(F)[C@H](CO)O2)c(=O)n1 [Compound 23, 1-(2,3-Didcoxy-3-fluoro-β-L-glycero-pent-2-eno-furanosyl)cytosine] | 82
15 | Nc1ccn([C@H]2S[C@@H](CO)C=C2F)c(=O)n1 [Compound L-17, (+)-1-[(1S,4R)-2,3-dideoxy-2,3-didehydro-2-fluoro-4-thio-β-L-ribofuranosyl]-cytosine] | 1570
16 | Nc1nc(=O)n([C@H]2S[C@@H](CO)C=C2F)cc1F [Compound L-18, (+)-1-[(1S,4R)-2,3-dideoxy-2,3-didehydro-2-fluoro-4-thio-β-L-ribofuranosyl]-5-fluoro-cytosine] | > 100

Each compound was assayed on 3TC-resistant (xxBRU 184V) HIV-1 (assay: HIV-1 Q-RT-PCR assay in human PBM cells, strain xxBRU 184V). Settings: Human immunodeficiency virus 1, PBMC, 120 h, read-out: Q-RT-PCR HIV-1 assay 184V EC90.
Format: cell-based
Protocol: as §1
Viral RNA present in the culture supernatant was prepared using commercially available columns (QIAamp Viral RNA mini Kit, Qiagen, Valencia, Calif.). Viral RNA was detected in real-time by monitoring increases in fluorescence signal that resulted from degradation of a quenched fluorescent probe molecule following the hybridization of the probe to the arnplified viral DNA (TaqMan 7700 chemistry, Applied Biosystems, Foster City, Calif.). The TaqMan probe and primers were designed using the Primer Express software (Applied Biosystems); they cover highly conserved sequences complementary to an 81 base pair long fragment from the HIV-1 RT gene between codon 230 and 257 of the group MHIV-1 genome; • probe 5′-6FAM-[…]-TAMRA-3′ (Sequence 1) • sense primer: 5′-[…]-3′ (Sequence 2); and • antisense primer 5′-[…]-3′ (Sequence 3).
A total of 5 μL RNA was RT-amplified using reagents and conditions as described by the manufacturer (Applied Biosystems). […] Copy numbers were calibrated using the Roche Amplicor HIV-1 Monitor test™ (Roche Diagnostics, Branchburg, N.J.) on a 1-log dilution series of a clinical HIV-1 genotype B isolate (attenuated in vitro to obtain a high viral load). The 10-6 diluted sample became positive at threshold cycle (Ct=PCR cycle threshold where a sample becomes detectable)=35.52, which corresponded to 1,410 copies/mL in the Roche monitor HIV-1 version II assay. When validated over a dynamic range of 3 logs of virus, there was excellent correlation (r2˜1) between the two methodologies. […] Therefore, the currently designed primer and probe set allowed reliable quantification of both clinical samples and HIV-1 in vitro preparations.
as §3

Row | Structure (SMILES) | EC90 [µM]
17 | Cc1cn([C@H]2C[C@H](N=[N+]=[N-])[C@@H](CO)O2)c(=O)[nH]c1=O [AZT, 3′-azido-3′-deoxythymidine, reference compound] | 0.01

Same assay, conditions: Q-RT-PCR

Row | Structure (SMILES) | Q-RT-PCR HIV-1 assay FI, fold increase (EC90 HIV-1184V/EC90 HIV-1xxBRU)
18 | Nc1ccn([C@@H]2C=C(F)[C@H](CO)O2)c(=O)n1 [Compound 23, 1-(2,3-Didcoxy-3-fluoro-β-L-glycero-pent-2-eno-furanosyl)cytosine] | 115
19 | Nc1ccn([C@H]2S[C@@H](CO)C=C2F)c(=O)n1 [Compound L-17, (+)-1-[(1S,4R)-2,3-dideoxy-2,3-didehydro-2-fluoro-4-thio-β-L-ribofuranosyl]-cytosine] | >50
20 | Nc1nc(=O)n([C@H]2S[C@@H](CO)C=C2F)cc1F [Compound L-18, (+)-1-[(1S,4R)-2,3-dideoxy-2,3-didehydro-2-fluoro-4-thio-β-L-ribofuranosyl]-5-fluoro-cytosine] | >100

Same assay, conditions: human PBM cells, 5 days, viral RNA reduced by 90%; read-out: Q-RT-PCR HIV-1 assay 184V EC90

Row | Structure (SMILES) | EC90 [µM]
21 | Nc1ccn([C@@H]2C=C(F)[C@H](CO)O2)c(=O)n1 [Compound 23, 1-(2,3-Didcoxy-3-fluoro-β-L-glycero-pent-2-eno-furanosyl)cytosine] | 68.4
22 | Nc1ccn([C@H]2S[C@@H](CO)C=C2F)c(=O)n1 [Compound L-17, (+)-1-[(1S,4R)-2,3-dideoxy-2,3-didehydro-2-fluoro-4-thio-β-L-ribofuranosyl]-cytosine] | > 100
23 | Nc1nc(=O)n([C@H]2S[C@@H](CO)C=C2F)cc1F [Compound L-18, (+)-1-[(1S,4R)-2,3-dideoxy-2,3-didehydro-2-fluoro-4-thio-β-L-ribofuranosyl]-5-fluoro-cytosine] | > 100

These compounds were tested on HBV (assay: HBV Q-PCR assay in HepAD38 (AD38) cells). Settings: AD38 cells, 5-day incubation, HBV DNA in supernatant; read-out: HBV assay Q-PCR EC90.
Format: cell-based, hepatitis B virus
Protocol: The HepAD38 cell line replicates HBV under conditions that can be regulated with tetracycline (12, 15). In the presence of this drug, the cell supernatant is virtually free of viral DNA, but upon the removal of tetracycline from the culture medium, these cells secrete virus-like particle into the supernatant (12). HepAD38 cells were seeded at 5×10^4 cells/well in a 96-well plate in seeding medium (DMEM/F12+10% FBS, 50 μg/mL penicillin, 50 μg/mL streptomycin, 100 μg/mL kanamycin, 400 μg/mL G418, and 0.3 μg/mL tetracycline) and incubated for 2 days at 37° C. in a 5% CO2 humid atmosphere. The seeding media was removed, and cells were washed 3 times with PBS. Cells were then incubated with 200 μL assay medium (DMEM/F12+10% FBS+P/S/K) containing either no compound, test compound, or control drugs at 10 μM. After a 5-day incubation, the cell supernatant was collected and stored at −70° C. until HBV DNA was quantified. HBV DNA was extracted from supernatant using QiaAmp DNA blood Mini kit (Qiagen) and nucleic acids eluted in 200 μL. Viral DNA was detected in Q-PCR. The TaqMan probe and primers were designed using the Primer Express software (Applied Biosystems) and cover highly conserved sequences complementary to the DNA sequences present in HBsAg (24). A total of 5 μL DNA was amplified using reagents and conditions as described by the manufacturer (Applied Biosystems). […]

Row | Structure (SMILES) | EC90 [µM]
24 | Nc1ccn([C@@H]2C=C(F)[C@H](CO)O2)c(=O)n1 [Compound 23, 1-(2,3-Didcoxy-3-fluoro-β-L-glycero-pent-2-eno-furanosyl)cytosine] | 1
25 | Nc1ccn([C@H]2S[C@@H](CO)C=C2F)c(=O)n1 [Compound L-17, (+)-1-[(1S,4R)-2,3-dideoxy-2,3-didehydro-2-fluoro-4-thio-β-L-ribofuranosyl]-cytosine] | > 100
26 | Nc1nc(=O)n([C@H]2S[C@@H](CO)C=C2F)cc1F [Compound L-18, (+)-1-[(1S,4R)-2,3-dideoxy-2,3-didehydro-2-fluoro-4-thio-β-L-ribofuranosyl]-5-fluoro-cytosine] | > 100

Each compound was assayed on BVDV (strain NADL) (assay: BVDV Q-RT-PCR assay in MDBK cells). Settings: Bovine viral diarrhea virus isolates and strains; MDBK cells, 24 hour incubation, viral RNA in supernatant; read-out: BVDV assay Q-PCR EC90.
Format: cell-based, bovine viral diarrhea virus
Protocol: Madin-Darby Bovine Kidney (MDBK) cells were maintained in DMEM/F12 supplemented with 10% heat-inactivated horse serum at 37° C. in a humidified, 5% CO2 atmosphere. Cells were seeded in 96-well plates at 5×10^3 cells/wcll and incubated for 1 hour. BVDV (strain NADL) was used to infect the cells in monolayer at MOI 0.02. After 45 minutes of infection, the viral inoculum was removed and the cells were washed twice. Media or media containing test compound was added to these cells, followed by 24 hour incubation. Cell supernatant fluids were collected, clarified by centrifugation (2 minutes, 3,000 g, room temperature) and viral RNA was prepared (QIAamp Viral RNA mini Kit, Qiagen). Viral RNA was detected in real-time RT-PCR.

Row | Structure (SMILES) | EC90 [µM]
27 | Cc1cn([C@H]2C[C@H](N=[N+]=[N-])[C@@H](CO)O2)c(=O)[nH]c1=O [AZT, 3′-azido-3′-deoxythymidine, reference compound] | > 200

Same assay, conditions: MDBK cells, 24 hour incubation, viral RNA in supernatant; read-out: BVDV assay Q-PCR EC90

Row | Structure (SMILES) | EC90 [µM]
28 | Nc1ccn([C@@H]2C=C(F)[C@H](CO)O2)c(=O)n1 [Compound 23, 1-(2,3-Didcoxy-3-fluoro-β-L-glycero-pent-2-eno-furanosyl)cytosine] | > 200
29 | Nc1ccn([C@H]2S[C@@H](CO)C=C2F)c(=O)n1 [Compound L-17, (+)-1-[(1S,4R)-2,3-dideoxy-2,3-didehydro-2-fluoro-4-thio-β-L-ribofuranosyl]-cytosine] | > 200
30 | Nc1nc(=O)n([C@H]2S[C@@H](CO)C=C2F)cc1F [Compound L-18, (+)-1-[(1S,4R)-2,3-dideoxy-2,3-didehydro-2-fluoro-4-thio-β-L-ribofuranosyl]-5-fluoro-cytosine] | > 200
